Patent publication US20170313808A1, “BIOACTIVE POLYMERIC LIQUID FORMULATIONS OF ABSORBABLE, SEGMENTED APLIPHATIC POLYURETHANE COMPOSITIONS” (priority 2008, published 2017)

tested on: S aureous; assay: Antibacterial testing with S aureous; format: cell-based; details: not given

SMILES | Additional Uses and Properties
O=c1[nH]cc(F)c(=O)[nH]1 [5-Fluorouracil] | Antibacterial as per testing
CC(=O)O[C@H]1C(=O)[C@@]2(C)[C@H]([C@H](OC(=O)c3ccccc3)[C@]3(O)C[C@H](OC(=O)[C@H](O)[C@@H](NC(=O)c4ccccc4)c4ccccc4)C(C)=C1C3(C)C)[C@]1(OC(C)=O)CO[C@@H]1C[C@@H]2O [Paclitaxel] | Antibacterial as per testing

tested on: SKOV3; assay: Testing with ovarian cancer cell lines (SKOV3); format: cell-based; details: ovarian cancer cell line SKOV3

SMILES | Additional Uses and Properties
OC(Cn1cncn1)(Cn1cncn1)c1ccc(F)cc1F [Fluconazole] | Antineoplastic (as per testing
Cc1oncc1C(=O)Nc1ccc(C(F)(F)F)cc1 [Leflunomide] | Antineoplastic, as per testing
Clc1ccc(COC(Cn2ccnc2)c2ccc(Cl)cc2Cl)c(Cl)c1 (stereo not drawn) [Miconazole] | Antineoplastic (as per testing
CO[C@@]12[C@H](COC(N)=O)C3=C(C(=O)C(C)=C(N)C3=O)N1C[C@@H]1N[C@@H]12 [Mitomycin] | Antineoplastic, as per testing
